In brackets after ≈: the same amount, converted by molar mass. Read-outs that look alike come from different tables or passages of the source.
Experiments:
Format in all cases: cell-based
[1] = tested on: STAPHYLOCOCCUS AUREUS A5177; assay: In vitro antibacterial activity, agar dilution MIC
[2] = tested on: ESCHERICHIA COLI DC-2; assay: In vitro antibacterial activity, agar dilution MIC; conditions: 24 h
[3] = tested on: ESCHERICHIA COLI SS; assay: In vitro antibacterial activity, agar dilution MIC; conditions: 24 h
[4] = tested on: STAPHYLOCOCCUS AUREUS 1775; assay: In vitro antibacterial activity, agar dilution MIC; conditions: S. aureus 1775, BHI agar, 35-37° C., 20 to 24 hours, read-out: MIC
[5] = tested on: ENTEROBACTER AEROGENES ATCC 13048; assay: In vitro antibacterial activity, agar dilution MIC; conditions: Klebsiella aerogenes
[6] = tested on: ESCHERICHIA COLI KNK 437; assay: microbe, parasite or virus in culture; conditions: E. coli KNK 437, BHI agar, 35-37° C., 20 to 24 hours
[7] = tested on: STAPHYLOCOCCUS EPIDERMIDIS 3519; assay: microbe, parasite or virus in culture; conditions: S. epidermidis 3519, BHI agar, 35-37° C., 20 to 24 hours, read-out: MIC
[8] = tested on: STREPTOCOCCUS PYOGENES 2548 INDUC; assay: In vitro antibacterial activity, agar dilution MIC; conditions: 24 h
[9] = tested on: ACINETOBACTER CALCOACETICUS CMX 669; assay: In vitro antibacterial activity, agar dilution MIC; conditions: A. calcoaceticus CMX 669, BHI agar, 35-37° C., 20 to 24 hours
[10] = tested on: ESCHERICHIA COLI JUHL; assay: microbe, parasite or virus in culture
[11] = tested on: PSEUDOMONAS AERUGINOSA A5007; assay: In vitro antibacterial activity, agar dilution MIC; conditions: P. aeruginosa A5007, BHI agar, 35-37° C., 20 to 24 hours
[12] = tested on: KLEBSIELLA PNEUMONIAE ATCC 8045; assay: In vitro antibacterial activity, agar dilution MIC; conditions: ATCC8045, 24 h
[13] = tested on: STAPHYLOCOCCUS AUREUS 45; assay: In vitro antibacterial activity, agar dilution MIC; conditions: 24 h
[14] = tested on: ESCHERICHIA COLI H560; assay: In vitro antibacterial activity, agar dilution MIC; conditions: E. coli H560, BHI agar, 35-37° C., 20 to 24 hours, read-out: MIC
[15] = tested on: PSEUDOMONAS AERUGINOSA K799/61; assay: In vitro antibacterial activity, agar dilution MIC; conditions: 24 h
Procedure: (§1) Representative compounds of the present invention were assayed in vitro for antibacterial activity as follows: Twelve petri dishes containing successive aqueous dilutions of the test compound mixed with 10 ml of sterilized Brain Heart Infusion (BHI) agar (Difco 0418-01-5) were prepared. Each plate was inoculated with 1:100 (or 1:10 for slow-growing strains, such as Micrococcus and Streptococcus) dilutions of up to 32 different microorganisms, using a Steers replicator block. The inoculated plates were incubated at 35°-37° C. for 20 to 24 hours. In addition, a control plate, using BHI agar containing no test compound, was prepared and incubated at the beginning and end of each test.
(§2) An additional plate containing a compound having known susceptibility patterns for the organisms being tested and belonging to the same antibiotic class as the test compound was also prepared and incubated as a further control, as well as to provide test-to-test comparability. Erythromycin A was used for this purpose.
(§3) After incubation, each disk was read. The minimum inhibitory concentration (MIC) was defined as the lowest concentration of drug yielding no growth, a slight haze, or sparsely isolated colonies on the inoculum spot as compared to the growth control. The results of this assay, shown below in Tables 1 and 2, support the conclusion that the compounds of the invention are effective antibacterial agents.

[16] = tested on: EN[…] ATCC 8043; assay: In vitro antibacterial activity, agar dilution MIC; conditions: Enterococcus faecium, ATCC8043, 24 h
Procedure: as §1, §2, §3

[17] = tested on: M[…] ATCC 4698; assay: In vitro antibacterial activity, agar dilution MIC; conditions: Micrococcus luteus, ATCC4698, 24 h
Procedure: as §1, §2, §3

[18] = tested on: M[…] ATCC 9341; assay: In vitro antibacterial activity, agar dilution MIC; conditions: Micrococcus luteus, ATCC9341, 24 h
Procedure: as §1, §2, §3

[19] = tested on: STAPHYLOCOCCUS AUREUS CMX 553; assay: In vitro antibacterial activity, agar dilution MIC; conditions: S. aureus CMX 553, BHI agar, 35-37° C., 20 to 24 hours, read-out: MIC
[20] = tested on: PSEUDOMONAS CEPACIA 296I; assay: In vitro antibacterial activity, agar dilution MIC; conditions: Burkholderia cepacia; P. cepacia 296I; BHI agar, 35-37° C., 20 to 24 hours; read-out: MIC
[21] = tested on: STAPHYLOCOCCUS AUREUS NCTC 10649; assay: In vitro antibacterial activity, agar dilution MIC; conditions: NCTC10649, 24 h
[22] = tested on: STR[…] EES61; assay: In vitro antibacterial activity, agar dilution MIC; conditions: Streptococcus pyogenes, 24 h
Procedure: as §1, §2
(§4) After incubation, each disk was read. The minimum inhibitory concentration (MIC) was defined as the lowest concentration of drug yielding no growth, a slight haze, or sparsely isolated colonies on the inoculum spot as compared to the growth control.

[23] = tested on: STR[…] 508; assay: In vitro antibacterial activity, agar dilution MIC; conditions: Streptococcus agalactiae, 24 h
Procedure: as §1, §2, §4

[24] = tested on: STAPHYLOCOCCUS AUREUS ATCC 6538P; assay: In vitro antibacterial activity, agar dilution MIC; conditions: ATCC6538P
[25] = tested on: PSEUDOMONAS AERUGINOSA BMH10; assay: In vitro antibacterial activity, agar dilution MIC; conditions: P. aeruginosa BMH10, BHI agar, 35-37° C., 20 to 24 hours, read-out: MIC
[26] = tested on: STREPTOCOCCUS BOVIS A5169; assay: In vitro antibacterial activity, agar dilution MIC; conditions: 24 h
[27] = tested on: PSEUDOMONAS AERUGINOSA K799/WT; assay: In vitro antibacterial activity, agar dilution MIC; conditions: P. aeruginosa K799/WT, BHI agar, 35-37° C., 20 to 24 hours
[28] = tested on: STREPTOCOCCUS PYOGENES 930 CONST; assay: In vitro antibacterial activity, agar dilution MIC; conditions: S. pyogenes 930 CONST, BHI agar, 35-37° C., 20 to 24 hours, read-out: MIC
[29] = tested on: PROVIDENCIA STUARTII CMX 640; assay: microbe, parasite or virus in culture

Structure (SMILES) | MIC [2] [µg/mL] | MIC [3] [µg/mL] | MIC [4] [µg/mL] | MIC [6] [µg/mL] | MIC [7] [µg/mL] | MIC [8] [µg/mL] | MIC [9] [µg/mL] | MIC [11] [µg/mL] | MIC [12] [µg/mL] | MIC [13] [µg/mL] | MIC [14] [µg/mL] | MIC [15] [µg/mL] | MIC [16] [µg/mL] | MIC [17] [µg/mL] | MIC [18] [µg/mL] | MIC [19] [µg/mL] | MIC [20] [µg/mL] | MIC [21] [µg/mL] | MIC [22] [µg/mL] | MIC [23] [µg/mL] | other results
CC[C@H]1OC(=O)[C@H](C)[C@@H](O[C@H]2C[C@@](C)(OC)[C@@H](O)[C@H](C)O2)[C@H](C)[C@@H](O[C@@H]2O[C@H](C)C[C@H](N(C)C)[C@H]2O)[C@](C)(O)C[C@@H](C)[C@@H](N(C)C)[C@H](C)[C@@H](O)[C@@]1(O)CNC [Compound 17, (9R)-9-deoxo-9-(N,N-dimethylamino)-21-(N-methylamino)-erythromycin A] | 50 (≈ 63.1 µM) | 0.78 (≈ 0.985 µM) | > 100 | 25 (≈ 31.6 µM) | 12.5 (≈ 15.8 µM) | 50 (≈ 63.1 µM) | 100 (≈ 126 µM) | > 100 | 50 (≈ 63.1 µM) | 6.2 (≈ 7.83 µM) | 12.5 (≈ 15.8 µM) | 3.1 (≈ 3.91 µM) | 3.1 (≈ 3.91 µM) | 1.56 (≈ 1.97 µM) | 1.56 (≈ 1.97 µM) | 12.5 (≈ 15.8 µM) | > 100 | 6.2 (≈ 7.83 µM) | 0.78 (≈ 0.985 µM) | 1.56 (≈ 1.97 µM) | MIC ([1]; S. aureus A5177, BHI agar, 35-37° C., 20 to 24 hours, read-out: MIC): > 100 µg/mL; MIC ([5]; ATCC13048, E. aerogenes ATCC 13048, BHI agar, 35-37° C., 20 to 24 hours, read-out: MIC): 100 µg/mL (≈ 126 µM); MIC ([10]; 24 h): 50 µg/mL (≈ 63.1 µM); MIC ([24]; S. aureus ATCC 6538P, BHI agar, 35-37° C., 20 to 24 hours, read-out: MIC): 12.5 µg/mL (≈ 15.8 µM); MIC [25]: 100 µg/mL (≈ 126 µM); MIC [26]: 0.78 µg/mL (≈ 0.985 µM); MIC [27]: > 100 µg/mL; MIC [28]: > 100 µg/mL; MIC ([29]; 24 h): > 100 µg/mL
CC[C@H]1OC(=O)[C@H](C)[C@@H](O[C@H]2C[C@@](C)(OC)[C@@H](O)[C@H](C)O2)[C@H](C)[C@@H](O[C@@H]2O[C@H](C)C[C@H](N(C)C)[C@H]2O)[C@](C)(O)C[C@@H](C)[C@@H](N(C)C)[C@H](C)[C@@H](O)[C@@]1(O)CN(C)C [Compound 18, (9R)-9,21-di-(N,N-dimethylamino)-9-deoxoerythromycin A] | 6.2 (≈ 7.69 µM) | 0.2 (≈ 0.248 µM) | > 100 | 12.5 (≈ 15.5 µM) | 3.1 (≈ 3.85 µM) | 25 (≈ 31 µM) | 12.5 (≈ 15.5 µM) | > 100 | 6.2 (≈ 7.69 µM) | 1.56 (≈ 1.94 µM) | 3.1 (≈ 3.85 µM) | 1.56 (≈ 1.94 µM) | 0.39 (≈ 0.484 µM) | 0.78 (≈ 0.968 µM) | 0.2 (≈ 0.248 µM) | 3.1 (≈ 3.85 µM) | > 100 | 1.56 (≈ 1.94 µM) | 0.1 (≈ 0.124 µM) | 0.2 (≈ 0.248 µM) | MIC ([1]; 24 h): 25 µg/mL (≈ 31 µM); MIC ([5]; ATCC13048, 24 h): 25 µg/mL (≈ 31 µM); MIC ([10]; E. coli JUHL, BHI agar, 35-37° C., 20 to 24 hours, read-out: MIC): 12.5 µg/mL (≈ 15.5 µM); MIC ([24]; 24 h): 1.56 µg/mL (≈ 1.94 µM); MIC [25]: 100 µg/mL (≈ 124 µM); MIC [27]: > 100 µg/mL; MIC [28]: > 100 µg/mL; MIC ([29]; P. stuartii CMX 640, BHI agar, 35-37° C., 20 to 24 hours): > 100 µg/mL
